The text below walks through data of ChEMBL document CHEMBL5465560, “Selectivity Literature for EUbOPEN Chemogenomic Library” (2024).

Structures are written as SMILES.

Test [1] addresses T1, Hormonally up-regulated neu tumor-associated kinase (Homo sapiens) (UniProt P57058).
T1 sequence (whole entry): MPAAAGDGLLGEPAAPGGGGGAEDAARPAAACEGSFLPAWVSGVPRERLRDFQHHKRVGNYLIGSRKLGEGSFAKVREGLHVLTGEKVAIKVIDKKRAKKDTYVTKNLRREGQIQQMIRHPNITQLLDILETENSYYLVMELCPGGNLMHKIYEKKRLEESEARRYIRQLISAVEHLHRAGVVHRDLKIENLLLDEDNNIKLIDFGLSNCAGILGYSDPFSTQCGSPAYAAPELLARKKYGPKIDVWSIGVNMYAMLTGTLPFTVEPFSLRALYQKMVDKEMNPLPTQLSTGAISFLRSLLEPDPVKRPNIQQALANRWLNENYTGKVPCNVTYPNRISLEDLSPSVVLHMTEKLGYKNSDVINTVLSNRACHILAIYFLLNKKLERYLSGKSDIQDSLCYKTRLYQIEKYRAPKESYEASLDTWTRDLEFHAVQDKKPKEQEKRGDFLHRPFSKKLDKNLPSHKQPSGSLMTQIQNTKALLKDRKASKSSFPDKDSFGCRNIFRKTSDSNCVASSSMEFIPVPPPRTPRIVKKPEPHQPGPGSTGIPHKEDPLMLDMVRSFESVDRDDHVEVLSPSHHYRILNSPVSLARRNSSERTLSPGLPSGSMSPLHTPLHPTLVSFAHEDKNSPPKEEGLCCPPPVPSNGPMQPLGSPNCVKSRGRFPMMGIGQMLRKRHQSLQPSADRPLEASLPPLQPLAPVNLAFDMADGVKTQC
As to the kind of experiment: Selectivity interaction (LanthaScreen Eu Kinase Binding Assay) EUB0001632a HUNK. The note with it: at 10 µM.

In test [2] the target is Glycogen synthase kinase-3 alpha (Homo sapiens, UniProt P49840). As to the kind of experiment: Selectivity interaction (ActivX KiNativ screen (ex vivo kinase selectivity in human PBMCs)) EUB0001619a GSK3A. It counts as cell-based. Particulars: PBMC, at 1 µM.
For test [3], the system named is Tyrosine-protein kinase ABL1 (Homo sapiens), P00519 [H396P]. The note with it: at 10 µM.
For test [4], the target named is Ribosomal protein S6 kinase alpha-1 (Homo sapiens, UniProt Q15418). As to the kind of experiment: Selectivity interaction (ActivX KiNativ screen (kinase selectivity in THP-1 cell lysates)) EUB0000639a RPS6KA1. It counts as subcellular. The note with it: lysate, at 1 µM.
Test [5] deals with Ribosomal protein S6 kinase alpha-3 (Homo sapiens, UniProt P51812). Put plainly: Selectivity interaction (ActivX KiNativ screen (kinase selectivity in THP-1 cell lysates)) EUB0000639a RPS6KA3. It counts as subcellular. The note with it: lysate, at 1 µM.
Test [6] addresses Polycomb protein SUZ12 (Homo sapiens) (UniProt Q15022). The note with it: at 10 µM.
Test [7] concerns the target Phosphatidylinositol 4-kinase type 2-alpha (Homo sapiens) (UniProt Q9BTU6). As to the kind of experiment: Selectivity interaction (ProQinase) EUB0000171b PI4K2A.
Test [8] has as its target T2, Serine/threonine-protein kinase DCLK2 (Homo sapiens) (UniProt Q8N568).
T2 sequence (whole entry): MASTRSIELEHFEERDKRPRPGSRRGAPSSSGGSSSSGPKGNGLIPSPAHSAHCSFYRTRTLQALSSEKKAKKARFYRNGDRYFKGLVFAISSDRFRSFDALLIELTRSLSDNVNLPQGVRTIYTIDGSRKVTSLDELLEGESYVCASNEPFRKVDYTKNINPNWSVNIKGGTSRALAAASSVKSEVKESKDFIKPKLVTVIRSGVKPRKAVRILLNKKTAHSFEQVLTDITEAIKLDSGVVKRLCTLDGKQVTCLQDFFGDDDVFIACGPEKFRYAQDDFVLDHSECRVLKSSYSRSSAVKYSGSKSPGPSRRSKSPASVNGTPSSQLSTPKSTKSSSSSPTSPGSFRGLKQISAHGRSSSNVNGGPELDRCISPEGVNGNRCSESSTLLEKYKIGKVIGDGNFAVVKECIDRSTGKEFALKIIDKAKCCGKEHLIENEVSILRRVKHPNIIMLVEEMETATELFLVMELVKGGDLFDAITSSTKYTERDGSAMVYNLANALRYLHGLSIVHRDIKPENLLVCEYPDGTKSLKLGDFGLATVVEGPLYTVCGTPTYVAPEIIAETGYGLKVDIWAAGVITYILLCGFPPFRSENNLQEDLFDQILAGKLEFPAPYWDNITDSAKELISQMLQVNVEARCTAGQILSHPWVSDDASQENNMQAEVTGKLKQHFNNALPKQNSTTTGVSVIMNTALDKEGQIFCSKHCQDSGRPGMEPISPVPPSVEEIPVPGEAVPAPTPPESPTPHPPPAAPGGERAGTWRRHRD
Put plainly: Selectivity interaction (Ambit KINOMEscan and KiNATiv profiling in Jurkat cells) EUB0000090b DCLK2. It counts as cell-based. Particulars: at 1 µM.

Test [9] deals with T3, Serine/threonine-protein kinase D1 (Homo sapiens) (UniProt Q15139).
T3 sequence (whole entry): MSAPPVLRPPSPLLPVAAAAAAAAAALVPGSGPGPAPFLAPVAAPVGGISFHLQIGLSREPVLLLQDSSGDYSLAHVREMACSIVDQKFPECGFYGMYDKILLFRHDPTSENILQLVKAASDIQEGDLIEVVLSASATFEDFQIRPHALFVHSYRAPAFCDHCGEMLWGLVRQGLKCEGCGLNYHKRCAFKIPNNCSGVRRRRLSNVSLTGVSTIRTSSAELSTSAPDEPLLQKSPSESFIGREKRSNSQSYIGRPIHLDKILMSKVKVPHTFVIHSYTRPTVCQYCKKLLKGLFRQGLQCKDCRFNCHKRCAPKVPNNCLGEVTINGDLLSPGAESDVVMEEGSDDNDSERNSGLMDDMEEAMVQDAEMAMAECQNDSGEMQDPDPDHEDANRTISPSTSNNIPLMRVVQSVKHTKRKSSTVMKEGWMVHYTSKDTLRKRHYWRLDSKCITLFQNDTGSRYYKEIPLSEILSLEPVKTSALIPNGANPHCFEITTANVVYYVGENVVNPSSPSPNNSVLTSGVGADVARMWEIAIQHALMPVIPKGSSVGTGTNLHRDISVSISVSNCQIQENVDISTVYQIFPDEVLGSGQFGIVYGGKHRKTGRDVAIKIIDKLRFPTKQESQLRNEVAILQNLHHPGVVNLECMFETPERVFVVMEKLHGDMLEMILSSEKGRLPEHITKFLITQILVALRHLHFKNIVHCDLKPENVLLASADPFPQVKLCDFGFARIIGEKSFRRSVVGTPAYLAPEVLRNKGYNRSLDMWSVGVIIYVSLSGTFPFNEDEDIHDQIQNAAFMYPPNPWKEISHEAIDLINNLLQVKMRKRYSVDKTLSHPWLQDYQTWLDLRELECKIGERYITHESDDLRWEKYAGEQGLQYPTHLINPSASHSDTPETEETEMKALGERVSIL
As to the kind of experiment: Selectivity interaction (KinomeScan (DiscoverX)) EUB0000229b PRKD1. The note with it: at 10 µM.

Phosphatidylinositol 4-kinase type 2-alpha (Homo sapiens), sequence (Q9BTU6 whole entry): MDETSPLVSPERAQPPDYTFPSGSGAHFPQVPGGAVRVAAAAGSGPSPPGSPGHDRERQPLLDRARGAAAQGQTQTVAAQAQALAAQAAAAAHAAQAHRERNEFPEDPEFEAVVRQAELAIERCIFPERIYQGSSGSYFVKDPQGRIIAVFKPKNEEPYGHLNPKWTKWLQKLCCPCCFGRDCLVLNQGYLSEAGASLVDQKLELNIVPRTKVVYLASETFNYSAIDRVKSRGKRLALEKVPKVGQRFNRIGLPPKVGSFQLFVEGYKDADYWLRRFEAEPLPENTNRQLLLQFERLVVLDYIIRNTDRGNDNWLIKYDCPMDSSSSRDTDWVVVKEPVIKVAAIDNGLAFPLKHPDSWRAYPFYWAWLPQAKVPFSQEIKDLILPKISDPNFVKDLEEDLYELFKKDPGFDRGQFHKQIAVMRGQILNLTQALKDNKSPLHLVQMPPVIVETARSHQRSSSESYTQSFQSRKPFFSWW
Ribosomal protein S6 kinase alpha-1, sequence (Q15418 whole entry): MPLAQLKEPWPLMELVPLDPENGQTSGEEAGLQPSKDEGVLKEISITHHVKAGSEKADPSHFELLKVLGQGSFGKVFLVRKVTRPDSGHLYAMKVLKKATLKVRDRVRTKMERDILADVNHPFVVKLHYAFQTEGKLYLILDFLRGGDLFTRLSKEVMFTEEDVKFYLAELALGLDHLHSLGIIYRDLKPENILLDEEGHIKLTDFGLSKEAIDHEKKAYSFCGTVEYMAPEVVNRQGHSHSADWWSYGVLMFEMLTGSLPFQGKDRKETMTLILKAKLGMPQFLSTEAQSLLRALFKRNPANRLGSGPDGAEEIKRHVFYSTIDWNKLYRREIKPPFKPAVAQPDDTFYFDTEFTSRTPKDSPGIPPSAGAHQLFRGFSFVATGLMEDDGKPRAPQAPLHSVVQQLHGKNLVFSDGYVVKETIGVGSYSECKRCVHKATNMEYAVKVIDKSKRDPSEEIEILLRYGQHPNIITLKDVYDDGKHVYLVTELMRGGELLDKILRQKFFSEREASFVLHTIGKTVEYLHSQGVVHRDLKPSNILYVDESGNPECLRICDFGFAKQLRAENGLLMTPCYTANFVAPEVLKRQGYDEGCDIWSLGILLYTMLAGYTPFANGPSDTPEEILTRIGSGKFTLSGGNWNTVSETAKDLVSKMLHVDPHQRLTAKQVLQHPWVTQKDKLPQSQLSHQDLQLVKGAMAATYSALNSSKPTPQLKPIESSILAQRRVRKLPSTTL
Polycomb protein SUZ12 (Homo sapiens), sequence (Q15022 whole entry): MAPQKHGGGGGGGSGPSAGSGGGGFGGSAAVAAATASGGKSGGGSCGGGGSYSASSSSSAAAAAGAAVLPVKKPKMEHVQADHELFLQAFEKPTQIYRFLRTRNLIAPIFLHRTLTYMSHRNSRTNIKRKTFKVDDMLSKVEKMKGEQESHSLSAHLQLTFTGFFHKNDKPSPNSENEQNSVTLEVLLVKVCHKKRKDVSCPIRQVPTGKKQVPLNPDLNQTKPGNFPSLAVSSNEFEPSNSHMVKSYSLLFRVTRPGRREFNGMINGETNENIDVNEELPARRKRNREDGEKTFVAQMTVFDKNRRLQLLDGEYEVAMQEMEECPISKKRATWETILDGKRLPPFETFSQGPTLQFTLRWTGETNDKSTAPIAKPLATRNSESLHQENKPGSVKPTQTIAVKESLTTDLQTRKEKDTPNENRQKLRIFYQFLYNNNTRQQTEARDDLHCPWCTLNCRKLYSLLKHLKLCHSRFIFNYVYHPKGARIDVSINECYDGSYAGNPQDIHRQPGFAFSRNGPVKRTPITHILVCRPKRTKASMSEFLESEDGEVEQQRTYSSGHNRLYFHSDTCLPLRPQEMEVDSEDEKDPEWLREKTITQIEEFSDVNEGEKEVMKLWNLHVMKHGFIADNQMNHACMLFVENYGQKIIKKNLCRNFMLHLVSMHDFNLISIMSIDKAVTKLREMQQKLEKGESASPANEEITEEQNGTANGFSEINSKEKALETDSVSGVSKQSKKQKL
Ribosomal protein S6 kinase alpha-3, sequence (P51812 whole entry): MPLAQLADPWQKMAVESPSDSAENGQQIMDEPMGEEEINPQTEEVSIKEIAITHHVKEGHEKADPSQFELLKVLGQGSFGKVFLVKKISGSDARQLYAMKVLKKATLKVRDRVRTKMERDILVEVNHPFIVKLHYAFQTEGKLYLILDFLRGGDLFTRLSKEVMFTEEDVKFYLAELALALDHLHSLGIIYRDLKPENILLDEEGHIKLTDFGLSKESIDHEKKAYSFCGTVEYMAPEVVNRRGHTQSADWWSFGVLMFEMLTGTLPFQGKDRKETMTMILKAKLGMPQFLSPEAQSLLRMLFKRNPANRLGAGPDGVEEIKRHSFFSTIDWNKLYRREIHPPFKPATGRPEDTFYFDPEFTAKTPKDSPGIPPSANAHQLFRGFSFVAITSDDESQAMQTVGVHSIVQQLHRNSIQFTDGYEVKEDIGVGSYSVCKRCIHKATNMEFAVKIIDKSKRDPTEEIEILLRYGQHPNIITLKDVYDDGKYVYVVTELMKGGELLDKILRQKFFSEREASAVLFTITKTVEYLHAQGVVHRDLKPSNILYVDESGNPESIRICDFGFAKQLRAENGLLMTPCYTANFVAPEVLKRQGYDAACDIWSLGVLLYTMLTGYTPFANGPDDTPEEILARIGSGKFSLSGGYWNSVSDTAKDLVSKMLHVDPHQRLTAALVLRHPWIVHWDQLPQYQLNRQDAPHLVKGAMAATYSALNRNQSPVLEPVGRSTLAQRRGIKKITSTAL
Glycogen synthase kinase-3 alpha, sequence (P49840 2-483 limits assumed): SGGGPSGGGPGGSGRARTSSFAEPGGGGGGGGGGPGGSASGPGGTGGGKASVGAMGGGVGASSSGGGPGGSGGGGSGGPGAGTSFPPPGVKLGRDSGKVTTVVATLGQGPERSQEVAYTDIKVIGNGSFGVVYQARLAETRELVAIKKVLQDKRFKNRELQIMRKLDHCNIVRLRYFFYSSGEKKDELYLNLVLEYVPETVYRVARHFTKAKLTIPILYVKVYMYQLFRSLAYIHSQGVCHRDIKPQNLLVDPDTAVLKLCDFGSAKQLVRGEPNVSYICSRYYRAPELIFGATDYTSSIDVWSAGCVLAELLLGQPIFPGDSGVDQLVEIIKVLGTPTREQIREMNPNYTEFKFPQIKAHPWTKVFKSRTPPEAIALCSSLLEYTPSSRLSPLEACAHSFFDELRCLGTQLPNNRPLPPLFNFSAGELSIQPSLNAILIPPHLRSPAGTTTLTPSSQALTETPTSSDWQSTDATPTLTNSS

Take `Cn1cc(-n2cnc3c(NCc4nc5cc(Cl)c(Cl)cc5[nH]4)nc(N4CCOCC4)nc32)cn1`: the % of inhibition in test [1] was -12%.

As for `N#Cc1cccc(-c2c[nH]c3ncnc(N4CCOCC4)c23)c1`, the % of inhibition in test [2] was 7%.

As for `Cc1cc([C@@H](C)Nc2ccccc2C(=O)O)c2nc(N3CCOCC3)cc(=O)n2c1` [AZD-6482], in [3], the % of control came out at 87%.

For `CC[C@@H]1[C@H](F)C(=O)N[C@@H]1COc1nccc2cc(C(N)=O)c(OC)cc12` [ZIMLOVISERTIB], the % of inhibition was determined as 8.6% in test [4] and 6.6% in test [5].

The molecule `CNCCN1CCC(c2cc(CN(C)C(=O)c3cccc(Oc4ccccc4)c3)ccn2)CC1` displayed a % activity in [6] of over 90%.

With `C=CC(=O)Nc1cccc(C(=O)Nc2ccc(Nc3cc(-c4[nH]c(SC)nc4C)ccn3)cc2)c1`, the results for the % of control in test [7] (at 1 µM) and in [7] (at 5 µM) were 117% and 133%, respectively.

In [8], `CN(C)C/C=C/C(=O)Nc1ccc(C(=O)N2CCCC(Nc3ncc(Cl)c(-c4c[nH]c5ccccc45)n3)C2)cc1` (stereo not given) showed a % of control of 78%.

In turn, `COc1cc(N(C)c2ccnc3ccc(C(F)(F)F)cc23)cc(OC)c1OC` yielded a % binding in test [9] of 100%.
